ChEMBL document CHEMBL5465560, “Selectivity Literature for EUbOPEN Chemogenomic Library” (2024)

Key:
[1] = tested on: Mast/stem cell growth factor receptor Kit (Homo sapiens), P10721 [A829P]; assay: (§1) Selectivity interaction (KinomeScan (DiscoverX)) EUB0000655a KIT; conditions: at 10 µM
[2] = tested on: Mast/stem cell growth factor receptor Kit (Homo sapiens), P10721 [D816V]; assay: as §1; conditions: at 10 µM
[3] = tested on: Mast/stem cell growth factor receptor Kit (Homo sapiens), P10721 [V559D,T670I]; assay: as §1; conditions: at 10 µM
Sequence of Mast/stem cell growth factor receptor Kit (Homo sapiens), P10721 [V559D,T670I] (P10721 whole entry V559D/T670I): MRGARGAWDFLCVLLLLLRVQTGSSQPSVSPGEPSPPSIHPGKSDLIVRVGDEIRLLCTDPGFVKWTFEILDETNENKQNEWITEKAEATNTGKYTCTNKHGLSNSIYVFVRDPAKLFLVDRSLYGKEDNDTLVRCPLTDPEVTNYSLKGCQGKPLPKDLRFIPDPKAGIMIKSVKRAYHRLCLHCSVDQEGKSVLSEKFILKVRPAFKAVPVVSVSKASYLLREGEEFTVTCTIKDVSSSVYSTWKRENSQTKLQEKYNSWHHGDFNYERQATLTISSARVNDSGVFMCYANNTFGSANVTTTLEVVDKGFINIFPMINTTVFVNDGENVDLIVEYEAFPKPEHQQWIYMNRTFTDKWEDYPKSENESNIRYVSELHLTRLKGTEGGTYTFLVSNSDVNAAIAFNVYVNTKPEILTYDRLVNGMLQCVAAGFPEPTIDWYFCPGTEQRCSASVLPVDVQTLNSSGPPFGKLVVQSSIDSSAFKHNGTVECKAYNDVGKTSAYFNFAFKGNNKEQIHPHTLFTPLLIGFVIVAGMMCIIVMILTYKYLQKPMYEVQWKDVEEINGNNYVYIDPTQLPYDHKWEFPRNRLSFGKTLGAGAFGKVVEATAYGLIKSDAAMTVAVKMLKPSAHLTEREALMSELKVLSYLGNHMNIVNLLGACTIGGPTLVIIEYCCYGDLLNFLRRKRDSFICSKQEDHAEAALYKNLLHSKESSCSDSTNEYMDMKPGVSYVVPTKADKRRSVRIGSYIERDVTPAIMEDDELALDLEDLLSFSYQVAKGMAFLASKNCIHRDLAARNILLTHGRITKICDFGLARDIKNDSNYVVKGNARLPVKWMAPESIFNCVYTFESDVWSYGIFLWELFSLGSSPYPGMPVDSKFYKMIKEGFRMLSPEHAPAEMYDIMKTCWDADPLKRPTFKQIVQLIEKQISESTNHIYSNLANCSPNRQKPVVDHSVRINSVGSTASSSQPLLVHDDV

[4] = target: T1, Inhibitor of nuclear factor kappa-B kinase subunit beta (Homo sapiens) (UniProt O14920); assay: Selectivity interaction (KinomeScan (DiscoverX)) EUB0000607a IKBKB; conditions: at 10 µM
T1 sequence (whole entry): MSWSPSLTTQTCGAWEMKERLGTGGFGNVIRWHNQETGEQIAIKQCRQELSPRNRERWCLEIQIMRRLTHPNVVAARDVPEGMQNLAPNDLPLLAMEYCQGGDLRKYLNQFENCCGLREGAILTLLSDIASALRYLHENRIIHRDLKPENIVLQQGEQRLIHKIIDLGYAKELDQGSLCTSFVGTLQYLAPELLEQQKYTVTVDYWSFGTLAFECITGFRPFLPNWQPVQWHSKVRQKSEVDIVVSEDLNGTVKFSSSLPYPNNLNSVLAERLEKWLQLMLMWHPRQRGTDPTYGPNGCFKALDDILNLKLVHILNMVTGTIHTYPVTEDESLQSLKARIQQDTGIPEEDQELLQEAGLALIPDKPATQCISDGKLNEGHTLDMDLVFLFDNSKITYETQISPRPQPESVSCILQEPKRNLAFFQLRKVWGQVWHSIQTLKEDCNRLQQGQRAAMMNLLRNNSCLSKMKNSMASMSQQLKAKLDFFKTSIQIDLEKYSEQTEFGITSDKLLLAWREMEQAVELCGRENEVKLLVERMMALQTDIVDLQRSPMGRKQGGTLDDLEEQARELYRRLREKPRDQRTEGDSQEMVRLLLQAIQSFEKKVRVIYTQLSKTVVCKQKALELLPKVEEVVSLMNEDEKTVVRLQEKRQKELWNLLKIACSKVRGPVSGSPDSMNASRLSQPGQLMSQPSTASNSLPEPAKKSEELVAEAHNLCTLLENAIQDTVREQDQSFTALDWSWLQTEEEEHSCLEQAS

[5] = target: 5'-AMP-activated protein kinase catalytic subunit alpha-1 (Homo sapiens, UniProt Q13131); assay: Selectivity interaction (ActivX KiNativ screen (ex vivo kinase selectivity in human PBMCs)) EUB0001619a PRKAA1; assay type: cell-based; conditions: PBMC, at 1 µM
Sequence of 5'-AMP-activated protein kinase catalytic subunit alpha-1 (Q13131 whole entry, looked up): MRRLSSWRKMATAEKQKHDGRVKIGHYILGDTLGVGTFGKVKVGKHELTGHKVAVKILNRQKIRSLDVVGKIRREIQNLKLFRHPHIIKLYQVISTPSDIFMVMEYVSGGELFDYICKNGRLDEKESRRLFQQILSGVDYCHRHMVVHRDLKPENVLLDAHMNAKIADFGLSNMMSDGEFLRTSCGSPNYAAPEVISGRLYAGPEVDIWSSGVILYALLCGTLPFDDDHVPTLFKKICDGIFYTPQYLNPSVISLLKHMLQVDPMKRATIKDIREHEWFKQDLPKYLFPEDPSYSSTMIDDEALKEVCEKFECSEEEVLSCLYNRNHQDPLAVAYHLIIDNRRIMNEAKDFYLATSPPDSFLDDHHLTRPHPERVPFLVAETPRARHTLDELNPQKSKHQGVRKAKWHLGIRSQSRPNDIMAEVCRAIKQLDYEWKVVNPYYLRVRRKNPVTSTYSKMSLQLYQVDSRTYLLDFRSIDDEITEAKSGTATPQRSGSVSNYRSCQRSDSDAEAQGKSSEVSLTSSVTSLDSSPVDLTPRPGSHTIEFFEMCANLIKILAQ

[6] = target: T2, MAP kinase-activated protein kinase 5 (Homo sapiens) (UniProt Q8IW41); assay: Selectivity interaction (KinomeScan (DiscoverX)) EUB0000595a MAPKAPK5; conditions: at 10 µM
T2 sequence (whole entry): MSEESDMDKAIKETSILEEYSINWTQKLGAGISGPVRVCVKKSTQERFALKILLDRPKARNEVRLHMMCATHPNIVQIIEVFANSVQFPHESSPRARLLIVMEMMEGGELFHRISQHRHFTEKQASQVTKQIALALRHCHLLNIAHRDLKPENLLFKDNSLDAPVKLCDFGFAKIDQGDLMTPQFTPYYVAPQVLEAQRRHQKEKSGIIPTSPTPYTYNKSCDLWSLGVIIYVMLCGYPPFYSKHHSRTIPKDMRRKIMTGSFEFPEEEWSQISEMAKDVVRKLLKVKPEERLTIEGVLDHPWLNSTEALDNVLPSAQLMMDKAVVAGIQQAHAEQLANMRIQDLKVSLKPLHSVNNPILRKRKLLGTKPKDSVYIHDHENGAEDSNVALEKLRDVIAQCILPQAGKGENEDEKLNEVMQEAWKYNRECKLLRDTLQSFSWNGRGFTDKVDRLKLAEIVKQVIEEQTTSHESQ

[7] = target: T3, Ephrin type-A receptor 1 (Homo sapiens) (UniProt P21709); assay: Selectivity interaction (Kinase panel (Invitrogen)) EUB0000639a EPHA1; conditions: at 200 nM
T3 sequence (whole entry): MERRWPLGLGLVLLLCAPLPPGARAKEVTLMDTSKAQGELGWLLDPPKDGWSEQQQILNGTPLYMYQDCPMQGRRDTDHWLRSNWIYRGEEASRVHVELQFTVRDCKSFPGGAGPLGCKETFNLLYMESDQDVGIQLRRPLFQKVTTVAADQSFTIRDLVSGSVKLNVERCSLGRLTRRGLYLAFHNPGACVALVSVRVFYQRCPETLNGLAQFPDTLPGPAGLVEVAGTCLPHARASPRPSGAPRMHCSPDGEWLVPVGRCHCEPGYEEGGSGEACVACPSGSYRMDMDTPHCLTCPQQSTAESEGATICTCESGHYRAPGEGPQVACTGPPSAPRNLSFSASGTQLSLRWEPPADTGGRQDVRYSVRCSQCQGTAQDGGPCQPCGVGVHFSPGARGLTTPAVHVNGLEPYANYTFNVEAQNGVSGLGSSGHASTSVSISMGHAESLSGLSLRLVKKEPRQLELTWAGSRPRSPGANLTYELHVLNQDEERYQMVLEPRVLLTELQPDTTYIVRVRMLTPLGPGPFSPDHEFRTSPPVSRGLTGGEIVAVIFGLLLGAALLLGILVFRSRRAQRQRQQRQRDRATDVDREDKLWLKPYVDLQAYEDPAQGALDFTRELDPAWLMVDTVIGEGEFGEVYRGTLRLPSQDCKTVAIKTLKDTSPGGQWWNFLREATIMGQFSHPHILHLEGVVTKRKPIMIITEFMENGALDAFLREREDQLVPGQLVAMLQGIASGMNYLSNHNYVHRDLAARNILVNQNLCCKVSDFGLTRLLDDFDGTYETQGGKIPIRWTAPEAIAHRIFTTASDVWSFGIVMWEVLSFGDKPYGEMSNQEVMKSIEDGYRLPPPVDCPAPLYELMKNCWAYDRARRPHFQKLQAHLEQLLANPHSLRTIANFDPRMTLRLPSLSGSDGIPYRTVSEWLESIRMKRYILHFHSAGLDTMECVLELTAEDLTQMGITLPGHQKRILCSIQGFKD

[8] = target: Epidermal growth factor receptor (Homo sapiens, UniProt P00533); assay: Selectivity interaction (Kinase panel (Invitrogen)) EUB0000639a EGFR; conditions: at 200 nM
[9] = target: Death-associated protein kinase 1 (Homo sapiens, UniProt P53355); assay: Selectivity interaction (Kinase panel (Invitrogen)) EUB0000639a DAPK1; conditions: at 200 nM
Sequence of Death-associated protein kinase 1 (P53355 whole entry, looked up): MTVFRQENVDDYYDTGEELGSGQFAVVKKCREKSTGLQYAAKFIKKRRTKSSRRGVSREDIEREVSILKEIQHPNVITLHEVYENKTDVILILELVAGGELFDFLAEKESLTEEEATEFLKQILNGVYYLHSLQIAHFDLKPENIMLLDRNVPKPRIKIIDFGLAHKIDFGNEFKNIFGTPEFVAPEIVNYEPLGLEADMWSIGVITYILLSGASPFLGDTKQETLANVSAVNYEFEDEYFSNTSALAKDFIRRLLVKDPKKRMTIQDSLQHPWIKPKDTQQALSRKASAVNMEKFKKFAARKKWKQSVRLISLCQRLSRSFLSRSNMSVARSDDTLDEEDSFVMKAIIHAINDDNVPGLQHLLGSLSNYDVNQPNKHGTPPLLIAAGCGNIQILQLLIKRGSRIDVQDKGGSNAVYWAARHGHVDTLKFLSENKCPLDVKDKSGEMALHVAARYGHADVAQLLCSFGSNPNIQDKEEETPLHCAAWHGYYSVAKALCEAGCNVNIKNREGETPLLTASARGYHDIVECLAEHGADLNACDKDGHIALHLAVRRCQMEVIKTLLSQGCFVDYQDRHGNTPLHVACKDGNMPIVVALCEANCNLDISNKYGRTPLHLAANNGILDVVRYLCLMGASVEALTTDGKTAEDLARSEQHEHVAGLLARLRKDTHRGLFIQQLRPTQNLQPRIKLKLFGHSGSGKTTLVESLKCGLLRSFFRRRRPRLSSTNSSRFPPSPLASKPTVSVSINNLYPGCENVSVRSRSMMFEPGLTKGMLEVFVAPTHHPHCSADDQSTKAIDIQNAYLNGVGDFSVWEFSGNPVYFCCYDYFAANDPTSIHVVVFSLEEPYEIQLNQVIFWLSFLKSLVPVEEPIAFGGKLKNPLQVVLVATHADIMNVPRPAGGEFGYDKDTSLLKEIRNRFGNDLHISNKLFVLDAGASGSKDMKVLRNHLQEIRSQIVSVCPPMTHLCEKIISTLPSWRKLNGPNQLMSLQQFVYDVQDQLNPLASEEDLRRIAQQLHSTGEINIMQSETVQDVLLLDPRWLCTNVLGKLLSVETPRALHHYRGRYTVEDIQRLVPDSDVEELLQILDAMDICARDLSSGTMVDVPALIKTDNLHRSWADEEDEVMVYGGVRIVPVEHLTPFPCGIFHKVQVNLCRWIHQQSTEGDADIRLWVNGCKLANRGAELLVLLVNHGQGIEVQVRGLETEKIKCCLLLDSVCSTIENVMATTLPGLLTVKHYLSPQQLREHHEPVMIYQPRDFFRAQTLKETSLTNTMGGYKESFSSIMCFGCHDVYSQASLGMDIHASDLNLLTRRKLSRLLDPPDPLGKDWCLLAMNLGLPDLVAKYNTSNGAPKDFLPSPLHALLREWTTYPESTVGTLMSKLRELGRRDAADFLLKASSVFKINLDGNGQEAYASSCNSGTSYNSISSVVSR

[10] = target: Serine/threonine-protein kinase PAK 4 (Homo sapiens, UniProt O96013)
[11] = target: Homeodomain-interacting protein kinase 1 (Homo sapiens, UniProt Q86Z02); assay: Selectivity interaction (KinomeScan (DiscoverX)) EUB0001049a HIPK1; conditions: at 1 µM
Sequence of Homeodomain-interacting protein kinase 1 (Q86Z02 whole entry, looked up): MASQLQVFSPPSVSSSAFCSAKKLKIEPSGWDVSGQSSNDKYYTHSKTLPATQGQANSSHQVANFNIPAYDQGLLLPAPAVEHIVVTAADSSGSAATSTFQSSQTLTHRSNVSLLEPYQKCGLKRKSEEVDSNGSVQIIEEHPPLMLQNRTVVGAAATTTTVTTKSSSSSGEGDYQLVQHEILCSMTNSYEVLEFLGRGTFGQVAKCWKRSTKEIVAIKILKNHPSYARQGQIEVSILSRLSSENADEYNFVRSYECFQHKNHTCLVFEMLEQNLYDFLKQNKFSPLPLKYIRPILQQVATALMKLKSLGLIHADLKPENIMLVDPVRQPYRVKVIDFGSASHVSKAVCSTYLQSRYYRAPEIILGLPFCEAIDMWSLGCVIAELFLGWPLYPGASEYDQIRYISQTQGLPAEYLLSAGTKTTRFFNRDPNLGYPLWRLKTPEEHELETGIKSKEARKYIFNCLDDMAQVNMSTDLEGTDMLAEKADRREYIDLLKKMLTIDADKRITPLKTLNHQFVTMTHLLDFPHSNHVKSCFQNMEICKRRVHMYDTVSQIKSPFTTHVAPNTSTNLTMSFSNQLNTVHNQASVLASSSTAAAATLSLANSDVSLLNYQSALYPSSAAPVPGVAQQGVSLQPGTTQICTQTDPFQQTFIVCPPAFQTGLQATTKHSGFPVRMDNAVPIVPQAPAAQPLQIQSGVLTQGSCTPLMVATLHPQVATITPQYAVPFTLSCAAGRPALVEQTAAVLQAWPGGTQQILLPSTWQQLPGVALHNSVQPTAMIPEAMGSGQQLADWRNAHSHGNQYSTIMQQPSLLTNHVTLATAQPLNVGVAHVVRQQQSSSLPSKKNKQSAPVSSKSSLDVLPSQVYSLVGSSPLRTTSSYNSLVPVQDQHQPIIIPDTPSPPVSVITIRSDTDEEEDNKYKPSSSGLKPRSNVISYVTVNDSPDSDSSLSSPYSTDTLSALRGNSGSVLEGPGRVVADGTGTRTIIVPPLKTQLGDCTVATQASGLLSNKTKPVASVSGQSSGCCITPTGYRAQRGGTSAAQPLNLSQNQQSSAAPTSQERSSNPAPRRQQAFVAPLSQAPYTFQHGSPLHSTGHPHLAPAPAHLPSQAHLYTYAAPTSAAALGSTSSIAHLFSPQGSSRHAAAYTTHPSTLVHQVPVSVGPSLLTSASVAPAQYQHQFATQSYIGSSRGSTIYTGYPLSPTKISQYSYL

KCNQ1 = KCNQ1 (Homo sapiens, UniProt P51787); assay: Selectivity interaction (Panel of kinases, GPCRs, ion channels and transporters (enzymatic assay)) EUB0000223bCl KCNQ1
[12] = target: BDNF/NT-3 growth factors receptor (Homo sapiens) (UniProt Q16620); assay: Selectivity interaction (Kinase panel (Z-LYTE Assay)) EUB0001632a NTRK2; conditions: at 10 µM
Sequence of BDNF/NT-3 growth factors receptor (Homo sapiens) (Q16620 32-822 limits assumed): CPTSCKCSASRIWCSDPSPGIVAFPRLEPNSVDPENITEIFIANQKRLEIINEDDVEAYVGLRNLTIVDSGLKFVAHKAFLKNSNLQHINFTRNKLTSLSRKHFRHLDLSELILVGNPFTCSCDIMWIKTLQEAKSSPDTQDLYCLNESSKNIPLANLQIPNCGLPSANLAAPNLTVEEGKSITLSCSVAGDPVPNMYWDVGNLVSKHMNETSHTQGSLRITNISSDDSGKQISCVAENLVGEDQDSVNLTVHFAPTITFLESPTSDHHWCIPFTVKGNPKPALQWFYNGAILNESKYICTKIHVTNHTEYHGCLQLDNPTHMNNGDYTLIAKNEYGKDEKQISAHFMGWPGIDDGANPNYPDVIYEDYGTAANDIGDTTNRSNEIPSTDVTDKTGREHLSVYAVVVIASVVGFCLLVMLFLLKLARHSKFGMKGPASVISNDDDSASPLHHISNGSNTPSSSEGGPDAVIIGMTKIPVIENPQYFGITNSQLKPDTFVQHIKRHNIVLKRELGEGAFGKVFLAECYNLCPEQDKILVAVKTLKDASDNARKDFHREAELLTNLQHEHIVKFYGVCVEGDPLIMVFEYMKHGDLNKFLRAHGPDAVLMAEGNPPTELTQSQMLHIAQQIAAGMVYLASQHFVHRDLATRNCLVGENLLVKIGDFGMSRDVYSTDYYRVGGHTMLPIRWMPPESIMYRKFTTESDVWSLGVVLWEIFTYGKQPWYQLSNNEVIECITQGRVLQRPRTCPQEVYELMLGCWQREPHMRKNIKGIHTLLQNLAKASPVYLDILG

Sequence of Mast/stem cell growth factor receptor Kit (Homo sapiens), P10721 [D816V] (P10721 whole entry D816V): as the sequence (P10721 whole entry V559D/T670I) above, with D559V, I670T, D816V counted along it
Sequence of Mast/stem cell growth factor receptor Kit (Homo sapiens), P10721 [A829P] (P10721 whole entry A829P): as the sequence (P10721 whole entry V559D/T670I) above, with D559V, I670T, A829P counted along it

## CN(C)CCOc1ccc(-c2nc(-c3ccncc3)c(-c3ccc4c(c3)CC/C4=N\O)[nH]2)cc1
[1]
  % of control: 86%
[2]
  % of control: 79%
[3]
  % of control: 93%

## CNC(=O)Nc1ccc(-c2nc(N3CC4CCC(C3)O4)c3cnn(C4CCC5(CC4)OCCO5)c3n2)cc1
[4]
  % of control: 79%

## N#Cc1cccc(-c2c[nH]c3ncnc(N4CCOCC4)c23)c1
[5]
  % of inhibition: 16%

## COCC(=O)NC/C=C/c1ccc2ncnc(Nc3ccc(Oc4ccc(C)nc4)c(C)c3)c2c1 [CP-724714]
[6]
  % of control: 100%

## CC[C@@H]1[C@H](F)C(=O)N[C@@H]1COc1nccc2cc(C(N)=O)c(OC)cc12 [ZIMLOVISERTIB]
[7]
  % of inhibition: 4.58%
[8]
  % of inhibition: 17%
[9]
  % of inhibition: 16.2%

## CCc1cccc(CC)c1NC(=O)c1nn(C)c2c1CCc1cnc(Nc3ccc(C(=O)NC4CCN(C)CC4)cc3OC(F)(F)F)nc1-2
[10]
  IC50: > 10 µM

## COc1cc(Nc2nc(C)cc(-c3cnn4nc(OC)ccc34)n2)cc(C(F)(F)F)c1
[11]
  % of control: 70%

## COc1cc(C(=O)N2CC[C@@H](O)[C@@H](N)C2)cc2nc(-c3cc4ccccc4n3CC3CC3)n(C)c12
KCNQ1
  XC50: > 25.1 µM

## Cn1cc(-n2cnc3c(NCc4nc5cc(Cl)c(Cl)cc5[nH]4)nc(N4CCOCC4)nc32)cn1
[12]
  % of control: 4.86%
